Converted amounts (≈) assume the structure as drawn. The source made the active and inactive calls. No cut-off for these calls is given here.
Assays:
[1] = molecular target: T1, Liver carboxylesterase (Sus scrofa, UniProt Q29550); test: Stability of the compound assessed as porcine liver esterase-mediated hydrolysis at 800 uM measured after 180 mins by HPLC analysis; type: ADME; settings: pig, isolated protein, 3 h
T1 sequence (Q29550 whole entry): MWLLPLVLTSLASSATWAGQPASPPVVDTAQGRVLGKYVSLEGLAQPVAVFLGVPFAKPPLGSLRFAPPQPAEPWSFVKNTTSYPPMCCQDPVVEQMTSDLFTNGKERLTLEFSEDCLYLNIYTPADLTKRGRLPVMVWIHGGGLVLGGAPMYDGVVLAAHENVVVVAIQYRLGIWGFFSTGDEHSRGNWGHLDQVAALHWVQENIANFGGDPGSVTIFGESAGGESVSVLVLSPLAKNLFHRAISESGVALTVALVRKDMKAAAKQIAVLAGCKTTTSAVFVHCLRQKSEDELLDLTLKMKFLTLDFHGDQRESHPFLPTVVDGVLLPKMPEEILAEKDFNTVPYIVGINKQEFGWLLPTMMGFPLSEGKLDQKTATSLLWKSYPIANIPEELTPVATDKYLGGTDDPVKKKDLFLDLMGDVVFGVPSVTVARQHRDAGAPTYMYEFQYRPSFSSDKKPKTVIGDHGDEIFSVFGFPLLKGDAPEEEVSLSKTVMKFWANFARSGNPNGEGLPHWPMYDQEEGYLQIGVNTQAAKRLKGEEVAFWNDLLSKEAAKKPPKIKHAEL

[2] = system: K562; test: Re-sensitization of human K562 cells to imatinib assessed as reduction in metabolic activity at 5 uM in presence of 1 uM imatinib by EZ4U assay; type: functional, cell-based
[3] = system: K562-IMA[r]; test: Cytotoxicity against human Imatinib-resistant K562 cells assessed as effect on metabolic activity at 10 uM incubated for 72 hrs by MTT assay; type: functional, cell-based
[4] = Stability in cell culture medium containing fetal bovine serum assessed as compound remaining at 200 uM at 37 degreeC measured after 72 hrs by RP-HPLC analysis; type: ADME, cell-free; settings: cattle, read-out: Stability
[5] = Retention time of compound by HPLC analysis; type: physicochemical
[6] = Cytotoxicity against human HS5 cells assessed as effect on metabolic activity at 10 uM incubated for 72 hrs by MTT assay; type: toxicity, cell-based; settings: hs5, 72 h
[7] = system: K562; test: Re-sensitization of human K562 cells to imatinib assessed as reduction in metabolic activity by measuring maximal sensitizing concentration in presence of imatinib by EZ4U assay; type: functional, cell-based; settings: read-out: EC50
[8] = Stability of compound in PBS buffer incubated for 8 to 24 hrs by HPLC analysis; type: physicochemical; settings: time 8-24 hrs
[9] = Stability of the compound assessed as Pseudomonas aeruginosa Amidase-mediated hydrolysis at 800 uM measured after 6 hrs by HPLC analysis; type: ADME; settings: isolated protein
[10] = system: COS-7; test: Cytotoxicity against african green monkey COS-7 cells assessed as effect on metabolic activity at 10 uM incubated for 72 hrs by MTT assay; type: toxicity, cell-based; settings: chlorocebus aethiops, cos-7, 72 h
[11] = Drug uptake in human Imatinib-resistant K562 cells assessed as increase in fluorescent intensity measured after 24 hrs by coomassie brilliant blue staining based analysis; type: ADME, cell-based; settings: k562-ima[r]
[12] = molecular target: T1, Liver carboxylesterase; test: Stability of the compound assessed as porcine liver esterase-mediated hydrolysis by measuring half life at 800 uM measured after 180 mins by HPLC analysis; type: ADME; settings: pig
[13] = Drug uptake in human Imatinib-resistant K562 cells assessed as increase in fluorescent intensity measured after 3 hrs by coomassie brilliant blue staining based analysis; type: ADME, cell-based; settings: k562-ima[r]
[14] = Solubility of compound in DMSO measured for 30 mins by UV-spectroscopy analysis; type: physicochemical
[15] = Stability of the compound assessed as Pseudomonas aeruginosa Amidase-mediated hydrolysis at 800 uM measured after 24 hrs by HPLC analysis; type: ADME; settings: isolated protein
[16] = system: amidase; test: Stability of the compound assessed as Pseudomonas aeruginosa Amidase-mediated hydrolysis by measuring half life at 800 uM measured after 24 hrs by HPLC analysis; type: ADME
[17] = system: K562; test: Re-sensitization of human K562 cells to imatinib assessed as reduction in metabolic activity at 10 uM in presence of imatinib by EZ4U assay; type: functional, cell-based
[18] = Drug uptake in human Imatinib-resistant K562 cells assessed as increase in fluorescent intensity measured after 1 hr by coomassie brilliant blue staining based analysis; type: ADME, cell-based; settings: k562-ima[r]
[19] = system: K562; test: Re-sensitization of human K562 cells to imatinib assessed as reduction in metabolic activity at 5 uM in presence of imatinib by EZ4U assay; type: functional, cell-based

Row | Structure (SMILES) | Stability [1] | Activity [2] | Activity [3] | remaining at 72 h, 200 µM [4] | Retention_time [5] | Activity [6] | maximal sensitizing concentration [7] | Stability [8] | Stability [9] | Activity [10] | Drug uptake [11] | half-life at 800 µM [12] | Drug uptake [13] | solubility at 0.5 h [14] | Stability [15] | half-life at 800 µM [16] | Activity [17] | Drug uptake [18] | Activity [19]
1 | CCCc1nc2ccccc2n1Cc1ccc(-c2ccccc2C(=O)NC(C)(C)C)cc1 | Stable | Active | inactive | 100% | 11.5 min | Non-toxic | 5200 nM | Stable | Stable | Non-toxic | – | – | – | – | – | – | – | – | –
2 | CCCc1nc2ccccc2n1Cc1ccc(-c2ccccc2C(=O)Oc2ccccc2)cc1 | – | Active | inactive | 94.8% | 13.7 min | Non-toxic | 1500 nM | Stable | – | Non-toxic | 15.7 nmol/mg | 4.67 h | 13.1 nmol/mg | – | – | – | – | – | –
3 | CCCNC(=O)c1ccccc1-c1ccc(Cn2c(CCC)nc3ccccc32)cc1 | – | Active | inactive | 95.1% | < 11.1 min | Non-toxic | 4500 nM | Stable | – | Non-toxic | – | – | – | – | – | – | – | – | –
4 | CCCc1nc2ccccc2n1Cc1ccc(-c2ccccc2C(=O)Oc2ccc(Oc3ccccc3)cc2)cc1 | – | Active | inactive | 99.8% | 15.2 min | Non-toxic | 2500 nM | Stable | – | Non-toxic | – | 6.17 h | – | 22 mM (≈ 11.9 mg/mL) | – | – | – | – | –
5 | CCCCNC(=O)c1ccccc1-c1ccc(Cn2c(CCC)nc3ccccc32)cc1 | Stable | Active | inactive | 97.1% | < 11.6 min | Non-toxic | 1300 nM | Stable | Stable | Non-toxic | – | – | – | – | – | – | – | – | –
6 | CCCc1nc2ccccc2n1Cc1ccc(-c2ccccc2C(=O)OCC)cc1 | – | Active | inactive | 71.9% | < 12.8 min | Non-toxic | 2100 nM | Stable | – | Non-toxic | – | 1.05 h | – | – | – | – | – | – | –
7 | CCCc1nc2ccccc2n1Cc1ccc(-c2ccccc2C(=O)Nc2ccc(Oc3ccccc3)cc2)cc1 | Stable | Active | inactive | 102% | 13.6 min | Non-toxic | 1300 nM | Stable | Stable | Non-toxic | – | – | – | – | – | – | – | – | –
8 | CCCc1nc2ccccc2n1Cc1ccc(-c2ccccc2C(=O)NCC)cc1 | Stable | Active | inactive | 95.1% | < 10.3 min | Non-toxic | 6200 nM | Stable | – | Non-toxic | – | – | – | – | Stable | 65 h | – | – | –
9 | CCCCOC(=O)c1ccccc1-c1ccc(Cn2c(CCC)nc3ccccc32)cc1 | – | Active | inactive | 78% | < 13.8 min | Non-toxic | 1600 nM | Stable | – | Non-toxic | – | 1.37 h | – | – | – | – | – | – | –
10 | CCCc1nc2ccccc2n1Cc1ccc(-c2ccccc2C(=O)Oc2ccc(-c3ccccc3)cc2)cc1 | – | – | – | – | 15.3 min | – | – | Stable | – | – | – | – | – | 16 mM (≈ 8.36 mg/mL) | – | – | – | – | –
11 | CCCc1nc2ccccc2n1Cc1ccc(-c2ccccc2C(=O)O)cc1 | – | – | – | – | 10.8 min | – | – | – | – | – | – | – | – | – | – | – | Active | – | –
12 | CCCc1nc2ccccc2n1Cc1ccc(-c2ccccc2C(=O)OC)cc1 | – | – | inactive | 67.8% | 12.4 min | Non-toxic | 2400 nM | Stable | – | Non-toxic | 4.7 nmol/mg | 0.917 h | 3.5 nmol/mg | – | – | – | – | 3 nmol/mg | Active
13 | CCCc1nc2ccccc2n1Cc1ccc(-c2ccccc2C(=O)OC(C)C)cc1 | – | Active | inactive | 91.9% | 13.1 min | Non-toxic | 2200 nM | Stable | – | Non-toxic | – | – | – | – | – | – | – | – | –
14 | CCCc1nc2ccccc2n1Cc1ccc(-c2ccccc2C(=O)OC(C)(C)C)cc1 | – | Active | inactive | 97.2% | 13.4 min | Non-toxic | 2900 nM | Stable | – | Non-toxic | – | – | – | – | – | – | – | – | –
15 | CCCc1nc2ccccc2n1Cc1ccc(-c2ccccc2C(=O)NC(C)C)cc1 | – | Active | inactive | 99.1% | 10.8 min | Non-toxic | 4800 nM | Stable | – | Non-toxic | – | – | – | – | – | – | – | – | –
16 | CCCOC(=O)c1ccccc1-c1ccc(Cn2c(CCC)nc3ccccc32)cc1 | – | Active | inactive | 75.9% | < 13.6 min | Non-toxic | 1800 nM | Stable | – | Non-toxic | – | 1.16 h | – | – | – | – | – | – | –

From ChEMBL document CHEMBL6078682, “Circumventing Imatinib resistance in CML: Novel Telmisartan-based cell death modulators with improved activity and stability” (Eur J Med Chem, 2025)
